Experimental data from patent US20260184749A1, “CARBOHYDRATE BINDING POLYPEPTIDE OF SAVALIA SAVAGLIA” (University of Belgrade, priority 2021, published 2026).
Where two headings read alike, the source gives them in different places.

Experiments:
[1] = tested on: Sava lectin (Savalithsin) from Savalia (Gerardia) savaglia, isoforms SEQ ID NOs: 1, 2, 3 and 4; assay: Turbidimetric activity assay of carbohydrate binding to Sava lectin
Protocol: Turbidimetric activity assay was performed to confirm ITC results. […] This small binding constant produces small heat effect that cannot be observed by ITC.

[2] = tested on: Sava lectin (Savalithsin) from Savalia (Gerardia) savaglia, isoforms SEQ ID NOs: 1, 2, 3 and 4; assay: Isothermal titration calorimetry (ITC) of carbohydrate binding to Sava lectin; conditions: pH 7.4, 50 mM PBS, 25° C.
Description: The present inventors have identified, purified and characterised a novel lectin from Savalia (Gerardia) savaglia. The inventors have identified four very closely-related isoforms of this lectin (see Table 1). The sequences of the isoforms are provided as SEQ ID NOs: 1, 2, 3 and 4. SEQ ID NO: 1 is the sequence of the most prevalent (dominant) form expressed in Savalia (Gerardia) savaglia (as determined by mass spectrometry). […] The lectin may be referred to herein as Sava lectin or Savalithsin. This term may be used to refer to a mixture comprising the four isoforms, which may optionally include other isoforms or variants as defined herein. References to recombinantly produced Savalithsin typically refer to the dominant form.
Isothermal titration calorimetry (ITC) experiments were performed with Sava lectin at pH 7.4 in 50 mM phosphate buffered saline (PBS) at 25° C. and in the presence of different D-carbohydrates (mono- and di-saccharides).
Thermodynamic parameters of mannose and methyl mannoside binding were obtained by algorithm for global fitting of the model function to the experimental ITC thermograms based on the iterative non-linear Levenberg-Marquardt χ2 regression procedure. The best agreement between model and experimental data was achieved when two binding sites per protein molecule were assumed.

[3] = tested on: Sava lectin (Savalithsin) from Savalia (Gerardia) savaglia, isoforms SEQ ID NOs: 1, 2, 3 and 4; assay: Differential scanning calorimetry (DSC) of Sava lectin in the presence of carbohydrates; assay type: binding; conditions: for Melting point (Tm) of Sava lectin in the presence of carbohydrate: PBS pH 7.4, Sava lectin alone Tm 79.17° C.
Protocol: Experiments with differential scanning calorimetry confirmed binding of mannose and methyl mannoside, see discussion of thermal stability below.
Thermal stability was determined by differential scanning calorimetry (DSC). Experiments were performed in PBS at pH 7.4. […] Increased Tm indicates stabilization of protein structure in the presence of bound carbohydrate.

[4] = target: Sava lectin (Savalithsin) from Savalia (Gerardia) savaglia, isoforms SEQ ID NOs: 1, 2, 3 and 4; assay: Microscale thermophoresis (MST) of carbohydrate binding to Sava lectin
Description: Microscale thermophoresis (MST) experiments confirmed binding of mannose and methyl mannoside. […] Two Km values indicate existence of two binding sites that could be different of allosterically connected.

[5] = target: the molecule itself; assay: MALDI-TOF mass spectrometry of Sava lectin (self-association, oligomers) [top]

OC[C@H]1OC(O)[C@H](O)[C@@H](O)[C@@H]1O (stereo partly drawn) [D-glucose]
Binding (turbidimetric activity assay) [1]: weak binding | Binding constant compared with D-mannose ([1]; relative to D-mannose): two orders of magnitude lower than for D-mannose | Binding observed using ITC [2]: did not observed binding

OC[C@H]1OC(O)[C@@H](O)[C@@H](O)[C@@H]1O (stereo partly drawn) [D-mannose]
Melting point (Tm) of Sava lectin in the presence of carbohydrate [3]: 79.63 °C | Kd ([4]; first of two binding events, read-out: Dissociation constant (Kd), first binding event): 0.0265 mM | Kd ([4]; second of two binding events, read-out: Dissociation constant (Kd), second binding event): 11.2 mM | Binding constant (Kb) [2]: 2514 M⁻¹

CC(=O)N[C@H]1C(O)O[C@H](CO)[C@H](O)[C@@H]1O (stereo partly drawn) [N-acetyl galactosamine]
Binding observed using ITC [2]: did not observed binding

CC(=O)N[C@H]1C(O)O[C@H](CO)[C@@H](O)[C@@H]1O (stereo partly drawn) [N-acetyl glucosamine]
Binding observed using ITC [2]: did not observed binding

O=C[C@@H](O)[C@H](O)[C@H](O)CO [arabinose]
Binding observed using ITC [2]: did not observed binding

C[C@@H]1OC(O)[C@@H](O)[C@H](O)[C@@H]1O (stereo partly drawn) [fucose]
Binding observed using ITC [2]: did not observed binding

OC[C@H]1OC(O)[C@H](O)[C@@H](O)[C@H]1O (stereo partly drawn) [galactose]
Tm of Sava lectin in the presence of carbohydrate, compared with Sava lectin only ([3]; PBS pH 7.4): the same as in the experiment with Sava lectin only | Binding observed using ITC [2]: did not observed binding

OC[C@H]1O[C@@H](O[C@H]2[C@H](O)[C@@H](O)C(O)O[C@@H]2CO)[C@H](O)[C@@H](O)[C@H]1O (stereo partly drawn) [lactose]
Binding observed using ITC [2]: did not observed binding

OC[C@@H](O)[C@@H](O)[C@H](O)[C@H](O)CO [mannitol]
Binding observed using ITC [2]: did not observed binding

CO[C@H]1O[C@H](CO)[C@@H](O)[C@H](O)[C@@H]1O [methyl alpha-D-mannoside]
Melting point (Tm) of Sava lectin in the presence of carbohydrate [3]: 79.55 °C | Kd ([4]; read-out: Dissociation constant (Kd)): 13.2 mM | Binding constant (Kb) [2]: 1270 M⁻¹

OC[C@H]1O[C@H](OC[C@H]2O[C@H](O[C@]3(CO)O[C@H](CO)[C@@H](O)[C@@H]3O)[C@H](O)[C@@H](O)[C@@H]2O)[C@H](O)[C@@H](O)[C@H]1O [raffinose]
Binding observed using ITC [2]: did not observed binding

C[C@@H]1OC(O)[C@H](O)[C@H](O)[C@H]1O (stereo partly drawn) [rhamnose]
Binding observed using ITC [2]: did not observed binding

B1: Sava lectin (isolated and purified from the coral Savalia (Gerardia) savaglia) (other)
chain: SNLRWVATSGGKVPEHAVVGGENFSGEVLYVARVRINSGLTPGKMAPSYRVAHTSYGGKEFYKSDYELITNPGWKSHIEWKYHEGHSKPTNAVLGGTDQRNLYVARFMYGDGHMLSGKVLFDYGKAYLGYNNKEYESTKFYVLVEHPSW
notes: No glycosylation or other post-translational modification was observed; also called Savalithsin
binding result [5]: binds
